Assay results published in article PMC8752837, “Structural basis of BAK activation in mitochondrial apoptosis initiation” (Nature Communications, 2022).
Blank lines part the entries; values can stand above or below the molecule they belong to. Numbered stars: 1 amine (or outer) side, 2 acyl side, 3 side chain; on linkers, the order of the positions; unused ones are H or OH. Bridge positions count the residues as written; N and C are the ends. Square brackets hold non-standard residues; d marks the D form. Peptide text beside a SMILES is read from it. I, II: the chains in the order shown. Actinocin(9to1) = Cc1c2oc3c(C)ccc(C(=O)[*:1])c3nc-2c(C(=O)[*:2])c(N)c1=O; NMeV = CN[C@H](C(=O)O)C(C)C; Sar = CNCC(=O)O

Legend:
[1] = test system: bak−/− bax−/− HCT116 cells; experiment: Apoptosis initiated by actinomycin D and TRAIL + CHX in cells constitutively expressing BAK; type: cell-based, human; settings: AUC of SYTOX Green +ve counts/confluence, 0-48 hr, n = 3
Description: We enriched for GFP positive cell populations by up to four rounds of sorting. Cells were used in apoptosis assays. […]
and doxycycline (Dox)-inducible mC-BAK. d, Representative i mmunoblot for BID and sypro red staining of BCL2allKO HCT116 cells expressing V74A and D83A mC-BAK and BID from n=2 independent experiments. e, Representative immunoblot of bak-/- bax- […]
from n=2 independent experiments . GFP positive cells were sorted three and four times to achieve similar expression levels. […]
human TRAIL and cycloheximide (CHX).
Data are presented as mean + SD for one representative of n=2 experiments each of n=3 technical replicates. g, Experimental […]
BAK (mC-BAK) monitored for 48 hr by IncuCyte imaging uptake of cell-impermeable dye SYTOX Green. AUC for kinetic traces is included. At 48 hr, we quantified percentage of SYTOX Green +ve cells (%) by fluorescence activated cell sorting (FACS). Data are presented as mean + SD from one of n=3 experiments each of n=3

[2] = target: T1, Human BAK-∆TM-His6 (BAK) (Homo sapiens, UniProt Q16611); experiment: Liposome permeabilization assay (ANTS/DPX dye release from LUVs): activation of WT BAK by BH3 peptides; type: biochemical; settings: 50 nM BAK, disubstituted BID-like BH3 peptides, Fig. 5c
T1 construct: C-terminus truncated recombinant human BAK containing C-terminal 6× histidine tag (MEAS-BAK); made in house; host or cells: E. coli T7 Express pLac I/Y
T1 sequence (Q16611 1-186 limits assumed): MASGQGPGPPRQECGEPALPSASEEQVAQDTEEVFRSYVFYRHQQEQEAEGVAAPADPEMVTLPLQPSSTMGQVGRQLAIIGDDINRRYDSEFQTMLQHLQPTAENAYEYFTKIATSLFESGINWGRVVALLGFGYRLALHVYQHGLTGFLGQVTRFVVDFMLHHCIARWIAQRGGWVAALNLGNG
Method: We performed liposome permeabilization assays as previously described[43]–[46]. […] We mixed the lipid film in ANTS/DPX solution by vortexing and sonication (~15 min) followed by extrusion through polycarbonate membrane of 2 μm pore size (Avanti Polar lipids) to generate homogenous large unilamellar vesicles (LUVs). We separated LUVs from free ANTS/DPX by S500 size exclusion chromatography and stored them at 4 °C in the dark. We prepared peptide and protein dilutions in 96-well black flat bottom plates (Costar) kept on ice. […] We quantified liposome permabilization by integrating area under curve (AUC) of normalized traces based on the Simpson’s equation, and analyzed that data in Excel and GraphPad Prism. AUC measurements reflect the kinetic and extent of liposome permeabilization and provide quantitative means for comparison between different experimental conditions (e.g., BAK mutants with gross or partial variation in activity).

[3] = target: T2, WT tevBAK (Homo sapiens, UniProt Q16611); experiment: Isothermal titration calorimetry; type: binding; settings: for % bound: estimated as ([BID BH3] × 100)/(KD + [BID BH3])
T2 construct: To generate tevBAK (residues 22–186), we cleaved off the histidine tag with TEV protease; His tag (vector pNIC28-Bsa4) (N, cleaved yes); made in house; host or cells: E. coli T7 Express pLac I/Y
T2 sequence (Q16611 22-186): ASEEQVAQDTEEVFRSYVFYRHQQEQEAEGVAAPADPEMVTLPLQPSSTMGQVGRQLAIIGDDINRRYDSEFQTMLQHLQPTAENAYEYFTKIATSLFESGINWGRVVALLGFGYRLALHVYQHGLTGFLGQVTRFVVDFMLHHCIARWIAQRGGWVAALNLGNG
Method: Protein samples were exchanged into 20 mM HEPES, 100 mM NaCl and 1 mM TCEP prior to the experiment. Titrations were performed by first injecting 0.5 μl of 250 or 500 µM BID BH3 peptides into a solution of 20 or 50 µM BAK followed by additional 2 μl injections. […] Results were analyzed using Origin software (OriginLab) provided by MicroCal. Binding constants (KD) and thermodynamic parameters were calculated from the average of two or three individual titrations by fitting the data to a single site binding model using a nonlinear least-squares fitting algorithm.

[4] = target: T3, MEAS-BAK-His6 (Homo sapiens, UniProt Q16611); experiment: Surface plasmon resonance; type: binding; settings: 20 °C
T3 construct: C-terminus truncated recombinant human BAK containing C-terminal 6× histidine tag (MEAS-BAK); made in house; host or cells: E. coli T7 Express pLac I/Y
T3 sequence (Q16611 1-186 limits assumed): T1 sequence (Q16611 1-186 limits assumed)
Method: We conducted SPR experiments at 20 °C using a Pioneer FE optical biosensor (ForteBio) amd histidine-tagged MEAS-BAK-His6 immobilized on polycarboxylate hydrogel-coated gold chips preimmobilized with nitrilotriacetic acid (HisCap chips; ForteBio). We primed the chip in chelating buffer (10 mM HEPES pH 7.4, 150 mM NaCl, 50 µM EDTA, 0.005% Tween20) and preconditioned it at 10 µL/min with three 60 s injections of wash buffer (10 mM HEPES pH 8.3, 150 mM NaCl, 350 mM EDTA, 0.05% Tween20) and one 60 s injection of chelating buffer before charging with a 60 s injection of 500 µM NiCl2 in chelating buffer. After priming into binding buffer (20 mM HEPES pH 8.0, 200 mM NaCl, 1 mM TCEP, 0.01% Tween20), we injected BAK to achieve ~500 RU of captured protein. As reference cell, we charged one flow cell on the chip with Ni^2+ without adding protein. […] We included a series of buffer-only (blank) injections throughout the experiment to account for instrumental noise. […] We processed, double-referenced, solvent corrected, and analyzed the data using the software package Qdat (version 4.3.1.2, ForteBio). We determined kinetic rate constants and affinities by fitting the data to a 1:1 interaction model.

[5] = 25 °C, single site binding model

Molecule: Cc1c2oc3c(C)ccc(C(=O)N[C@@H]4C(=O)N[C@H](C(C)C)C(=O)N5CCC[C@H]5C(=O)N(C)CC(=O)N(C)[C@@H](C(C)C)C(=O)O[C@@H]4C)c3nc-2c(C(=O)N[C@@H]2C(=O)N[C@H](C(C)C)C(=O)N3CCC[C@H]3C(=O)N(C)CC(=O)N(C)[C@@H](C(C)C)C(=O)O[C@@H]2C)c(N)c1=O [ActD] (I: T[dV]P[Sar][NMeV] / II: T[dV]P[Sar][NMeV]; ester I:1-I:C, II:1-II:C; linker I:N-II:N via Actinocin(9to1))
AUC ActD ([1]; V74A 3x 15% + ActD 0.5): 753.275
AUC ActD ([1]; V74A 3x 15% + ActD 2): 847.336
AUC ActD ([1]; V74A 3x 15% + qVD + ActD 2): 104.738
AUC ActD ([1]; V74A 4x 15% + ActD 0.5): 679.364
AUC ActD ([1]; V74A 4x 15% + ActD 2): 932.591
AUC ActD ([1]; V74A 4x 15% + qVD + ActD 0.5): 208.982
AUC ActD ([1]; V74A 4x 15% + qVD + ActD 2): 91.8357
AUC ActD ([1]; WT 4x 15% + ActD 0.5): 821.8
AUC ActD ([1]; WT 4x 15% + ActD 2): 1113.4
AUC ActD ([1]; WT 4x 15% + qVD + ActD 0.5): 162.981
AUC ActD ([1]; WT 4x 15% + qVD + ActD 2): 59.6671

BAK activation or inhibition in liposome permeabilization ([2]; listed as W(3)W(5) BID BH3 ligand): fully inhibitory
% of BAK bound to peptide under crystallization conditions ([3]; 10 mg/mL BAK (0.5 mM) and 2 mM peptide, from KD of […]): ~99.99%
ITC -T∆S [3, 5]: 5.53 ± 1.6 kcal/mol
ITC ∆G [3, 5]: -9.02 ± 0.10 kcal/mol
ITC ∆H [3, 5]: -14.55 ± 1.76 kcal/mol
% bound ([3]; [BID BH3] 1 μM, listed as W3W5 peptide): 80%
% bound ([3]; [BID BH3] 10 μM): 97.5%
SPR kd ([4]; 1:1 interaction model): 2.41±0.01 ×10-2 s-1
kon ([4]; 1:1 interaction model, read-out: SPR ka): 71900 ± 100 M⁻¹ s⁻¹
Kd ([4]; MEAS-BAK-His6 captured on Ni-NTA HisCap chip, three-fold peptide dilution series injected in triplicate, 1:1 interaction model, read-out: SPR KD): 0.336 ± 0.001 µM
SPR Rmax ([4]; ~500 RU captured BAK): 79.2±0.1 RU
Molecule: Ac-EDIIRNIARHLAQWGDSMDRSW-NH2 [W(3)W(5)]
BAK activation or inhibition in liposome permeabilization ([2]; listed as W(3)W(5) BID BH3 peptide): activates BAK efficiently at low doses, yet inhibits BAK at high doses
